Values of other authors in US10806768B2, “Composition for promoting metallothionein production” (priority 2016, dated 2020).

Which results are given for CC(=O)N[C@@H](CS)C(=O)O [NAC, N-Acetyl-Cysteine]?
oxidative glutathione disulfide (GSSG) level, NAC group (only at a trend level of significance, p=0.09): increased; CGI-I, NAC versus placebo groups (p>0.69): no statistically significant difference; glutathione (GSH) level in blood, NAC group (versus placebo, p<0.05): significantly higher; DNA strand break and oxidative damage, NAC versus placebo groups (week 12): no significant difference; GSH/GSSG ratio, NAC versus placebo groups (week 12): no significant difference; blood homocysteine levels, NAC versus placebo groups (week 12): no significant difference
